Consider eleven compounds from paper PMC5601360 (Journal of Medicinal Chemistry, 2017).

The test system of assay [1] is acetic acid-induced writhing in CD1 mice. The assay is described as follows: Acetic acid-induced writhing assay in mice after sc administration. Type of assay: in vivo. Conditions: sc; for ED50: Mus musculus, 0.5 h, CD1 mice, inhibition of writhing at 30 min after drug administration, read-out: antinociceptive ED50 (95% CI). As for the experimental part:
Male CD1 mice (30–35 g, 6–8 weeks old) were obtained from the Center of Biomodels and Experimental Medicine (CBEM) (Innsbruck, Austria) or Charles River (Sulzfeld, Germany). Mice were group-housed in a temperature controlled room with a 12 h light/dark cycle and with free access to food and water. All animal studies were conducted in accordance with ethical guidelines and animal welfare standards according to Austrian regulations for animal research and were approved by the Committee of Animal Care of the Austrian Federal Ministry of Science and Research. Solutions of test compounds were prepared as 1% DMSO solutions in sterile physiological 0.9% saline and further diluted to working doses in saline solution. Test compounds or vehicle (saline) were administered by sc route in a volume of 10 μL/1 g of body weight. All doses are expressed in terms of salts. Separate groups of mice received the respective dose of compound, and individual mice were only used once for behavioral testing. Each experimental group included at least five animals.
Writhing was induced in male CD1 mice by intraperitoneal (ip) injection of a 0.6% acetic acid aqueous solution as described previously.[9a] Groups of mice were administered sc different doses of test compound or saline (control), and then 5 min prior to testing (25 min after drug or saline) each animal received an ip injection of acetic acid solution. Each mouse was placed in individual transparent Plexiglas chambers, and the number of writhes was counted during a 10 min observation period. […] For the antagonism studies, nor-BNI (20 mg/kg) was sc administered 24 h before 2 (5 mg/kg) and 17 (10 mg/kg) was sc administered 15 min before U50,488 (2 mg/kg).
(In general: In writhing tests, fewer writhes than in controls are read as antinociception.)

Assay [2] deals with T1, human KOP receptor (Homo sapiens, UniProt P41145).
T1 construct: expressed in transfected cells; host or cells: CHO-hKOP cells (gift of Dr. Lawrence Toll, SRI International)
The assay is described as follows: Competition binding assay, CHO-hKOP cell membranes, [3H]U69,593. The settings on record: for Ki: CHO-hKOP membranes, mean ± SEM, read-out: receptor binding affinity Ki KOP; for selectivity DOP/KOP: Ki ratio DOP/KOP; for selectivity MOP/KOP: Ki ratio MOP/KOP. The method, then:
(§1) CHO cells stably expressing recombinant human KOP, MOP, or DOP receptors (CHO-hKOP, CHO-hMOP, and CHO-hDOP cell lines) were kindly provided by Dr. Lawrence Toll (SRI International, Menlo Park, CA). The CHO-hKOP cell line was maintained in Dulbecco’s Minimal Essential Medium (DMEM) supplemented with fetal bovine serum (FBS, 10%), penicillin/streptomycin (0.1%), L-glutamine (2 mM), and geneticin (400 μg/mL). The CHO-hMOP and CHO-hDOP cell lines were maintained in DMEM/Ham’s F-12 medium supplemented with FBS (10%), penicillin/streptomycin (0.1%), L-glutamine (2 mM), and geneticin (400 μg/mL). Cell cultures were maintained at 37 °C in 5% CO2 humidified air.
(§2) Nonspecific binding was determined using 1–10 μM of the unlabeled counterpart of each radioligand. Assays were performed in 50 mM Tris-HCl buffer (pH 7.4) in a final volume of 1 mL. Cell membranes (15–20 μg) were incubated with the appropriate radioligand and various concentrations of test compound for 60 min at 25 °C. After incubation, reactions were terminated by rapid filtration through Whatman glass fiber filters. Filters were washed three times with 5 mL of ice-cold 50 mM Tris-HCl buffer (pH 7.4) using a Brandel M24R cell harvester (Gaithersburg, MD). Radioactivity retained on the filters was counted by liquid scintillation counting using a Beckman Coulter LS6500 (Beckman Coulter Inc., Fullerton, CA). All binding experiments were performed in duplicate and repeated at least three times. The inhibitory constant Ki values (in nM) were calculated from the competition binding curves by nonlinear regression analysis and the Cheng–Prusoff equation.[16]

The target in assay [3] is T2, human DOP receptor (Homo sapiens, UniProt P41143).
T2 construct: expressed in transfected cells; host or cells: CHO-hDOP cells (gift of Dr. Lawrence Toll, SRI International)
The assay is described as follows: Competition binding assay, CHO-hDOP cell membranes, [3H]diprenorphine. The settings on record: mean ± SEM, read-out: receptor binding affinity Ki DOP. The method, then: as §1
as §2, with “. Nonspecific” for “Nonspecific”

Assay [4] concerns the target T3, human MOP receptor (Homo sapiens, UniProt P35372).
T3 construct: expressed in transfected cells; host or cells: CHO-hMOP cells (gift of Dr. Lawrence Toll, SRI International)
The assay is described as follows: Competition binding assay, CHO-hMOP cell membranes, [3H]DAMGO. The settings on record: mean ± SEM, read-out: receptor binding affinity Ki MOP. As for the experimental part:
as §1
as §2, with “. Nonspecific” for “Nonspecific”

Assay [5] concerns the target T1, human KOP receptor. Nature of the assay: [35S]GTPγS binding assay using CHO-hKOP cell membranes. Type of assay: biochemical. The settings on record: for EC50: CHO-hKOP membranes, mean ± SEM; for Emax: read-out: [35S]GTPγS KOP % stim. As for the experimental part: The binding of [^35S]GTPγS to membranes from CHO cells stably expressing human KOP receptors (CHO-hKOP cells) was conducted according to the published procedures.[9a],[9b] CHO-hKOP cell membranes were prepared in buffer A (20 mM HEPES, 10 mM MgCl2, and 100 mM NaCl, pH 7.4). Cell membranes (8–15 μg) in buffer A were incubated with 0.05 nM [^35S]GTPγS, 10 μM GDP, and various concentrations of test compound in a final volume of 1 mL for 60 min at 25 °C. Nonspecific binding was determined using 10 μM GTPγS, and the basal binding was determined in the absence of test ligand. Samples are filtered over glass fiber filters and counted as described for binding assays. […] To determine the KOP antagonist activity, a concentration–response curve for U69,593 was obtained by assessing the [^35S]GTPγS binding to CHO-hKOP cell membranes in the presence or absence of test compound, as previously described.[9b] For each compound, the Schild analysis was conducted, utilizing a full agonist–dose response curve in the presence of at least two concentrations of the antagonist. The equilibrium dissociation constant (Ke) was calculated from the equation Ke = [a]/(DR – 1), where “a” is the concentration of antagonist and DR the virtual shift of the agonist concentration–response curve to the right in the presence of a given concentration of antagonist. All experiments were performed in duplicate and repeated at least three times.

Where [6] appears, read: percentage stimulation relative to the KOP full agonist U69,593.

For `Cl.Oc1cccc(CCN(CCc2ccccc2)Cc2ccccc2)c1` [Compound 5, 3-[2-[(Benzyl)(phenethyl)amino]ethyl]phenol Hydrochloride], in assay [1], the ED50 – broadly, the dose that gives a 50% effect, or the effect in half of the subjects – was found to be 1.21 mg/kg. Moreover, the values for the Ki in assay [2], in assay [3] and in assay [4] were 0.71 ± 0.25 nM, 1860 ± 501 nM and 463 ± 95 nM, respectively. For the same compound, the “selectivity DOP/KOP” value in assay [2] was determined as 2623. In addition, the “selectivity MOP/KOP” value in assay [2] worked out at 652. In addition, the EC50 – broadly, the concentration that produces a half-maximal response – in assay [5] came out at 4.65 ± 1.63 nM. Further, the Emax in assay [5] (setting [6]) was at least 80%.
With `Cl.Oc1cccc(CCN(CCc2ccccc2)C2CCC2)c1` [Compound 6, 3-[2-[(Cyclobutyl)(phenethyl)amino]ethyl]phenol Hydrochloride], in assay [2], the Ki (usually the dissociation constant of the complex between target and ligand, obtained from inhibition or displacement) was found to be 10.3 ± 1.2 nM; the “selectivity DOP/KOP” value is recorded as 344; the “selectivity MOP/KOP” value was 65. The Ki in assay [3] was 3540 ± 38 nM. The Ki in assay [4] was determined as 670 ± 174 nM. The compound also had an EC50 in assay [5] of 46.1 ± 13.9 nM. In assay [5] (setting [6]), the Emax was found to be 50.7 ± 5%.
For `CC(C)CCN(CCc1ccccc1)CCc1cccc(O)c1.Cl` [Compound 7, 3-[2-[(Isoamyl)(phenethyl)amino]ethyl]phenol Hydrochloride], in assay [1], the ED50 was determined as 2.78 mg/kg. Besides, in assay [2], the Ki was 2.69 ± 0.43 nM, the “selectivity DOP/KOP” value is listed as 1020 and the “selectivity MOP/KOP” value was 96. Besides, in assay [3], the Ki came to 2740 ± 677 nM. In assay [4], the Ki is 259 ± 86 nM. In assay [5], this compound returned an EC50 of 22.1 ± 3.1 nM. In addition, the Emax in assay [5] (setting [6]) turned out to be 74.7 ± 3.6%.
For the compound `Cl.Oc1cccc(CCN(CCc2cccc(O)c2)CC2CCC2)c1` [Compound 8, 3,3′-[2,2′-(Cyclobutylmethylazanediyl)bis(ethane-2,1-diyl)]diphenol Hydrochloride], the ED50 in assay [1] came to 1.71 mg/kg. The inhibition constant Ki is 0.38 ± 0.09 nM in assay [2], 3340 ± 844 nM in assay [3] and 230 ± 43 nM in assay [4]. Moreover, the “selectivity DOP/KOP” value in assay [2] is 8789. Also, the “selectivity MOP/KOP” value in assay [2] came to 605. In addition, in assay [5], the EC50 was 4.44 ± 1.36 nM. Further, the Emax in assay [5] (setting [6]) was 71.1 ± 5.2%.
As to `Cl.Oc1cccc(CCN(CCc2cccc(O)c2)CC2CC2)c1` [Compound 9, 3,3′-[2,2′-(Cyclopropylmethylazanediyl)bis(ethane-2,1-diyl)]diphenol Hydrochloride], the ED50 in assay [1] was 4.73 mg/kg. Also, in assay [2], the inhibition constant (Ki) came to 4.62 ± 0.11 nM, the “selectivity DOP/KOP” value was 617 and the “selectivity MOP/KOP” value is given as 137. Moreover, the Ki in assay [3] was 2850 ± 720 nM. Moreover, the Ki in assay [4] was 631 ± 215 nM. The same compound gave an EC50 in assay [5] of 20.6 ± 0.6 nM. Moreover, the Emax in assay [5] (setting [6]) was 51.3 ± 7.6%.
Regarding `C=CCN(CCc1cccc(O)c1)CCc1cccc(O)c1.Cl` [Compound 10, 3,3′-[2,2′-(Allylazanediyl)bis(ethane-2,1-diyl)]diphenol Hydrochloride], in assay [2], the Ki was found to be 19.1 ± 0.6 nM, the “selectivity DOP/KOP” value came out at 39 and the “selectivity MOP/KOP” value is reported as 19. In assay [3], the Ki was found to be 738 ± 16 nM. In addition, the Ki in assay [4] is 358 ± 28 nM. Also, it took 154 ± 62 nM to reach a half-maximal effect in assay [5] (EC50). Also, in assay [5] (setting [6]), the “[35S]GTPγS KOP % stim” value was determined as 37.5 ± 0.6% and the Emax amounted to 37.5%.
As to `Cl.Oc1cccc(CCN(CCc2cccc(O)c2)CC2CCCCC2)c1` [Compound 11, 3,3′-[2,2′-(Cyclohexylmethylazanediyl)bis(ethane-2,1-diyl)]diphenol Hydrochloride], the ED50 in assay [1] is 0.95 mg/kg. In assay [2], the Ki is 0.14 ± 0.04 nM, the “selectivity DOP/KOP” value came to 10229 and the “selectivity MOP/KOP” value was 1193. Moreover, the “lower KOP affinity vs compound 4” value in assay [2] (Ki comparison) was “about 2 fold”. In addition, the Ki in assay [3] was found to be 1430 ± 506 nM. The Ki in assay [4] is 167 ± 52 nM. The compound also gave a 50% effective concentration (EC50) in assay [5] of 17.6 ± 7.1 nM. In addition, the Emax in assay [5] (setting [6]) is at least 80%.
Take `Cl.Oc1cccc(CCN(CCc2cccc(O)c2)CC2CCCC2)c1` [Compound 12, 3,3′-[2,2′-(Cyclopentylmethylazanediyl)bis(ethane-2,1-diyl)]diphenol Hydrochloride]: the ED50 in assay [1] amounted to 1.19 mg/kg. In assay [1] (ED50 comparison), the “reduction in antinociceptive potency vs compound 3” value is “about 2 fold”. In addition, in assay [2], the Ki was found to be 0.31 ± 0.04 nM, the “selectivity DOP/KOP” value stood at 8952 and the “selectivity MOP/KOP” value worked out at 1884. Also, the Ki in assay [3] is 2780 ± 545 nM. The Ki in assay [4] turned out to be 584 ± 119 nM. In addition, in assay [5], the EC50 was determined as 13.7 ± 3.5 nM. Besides, the “decrease in in vitro agonist potency vs compound 3” value in assay [5] (EC50 comparison) was “about 3 fold”. Besides, the Emax in assay [5] (setting [6]) was at least 80%.
As for `CC(C)CCN(CCc1cccc(O)c1)CCc1cccc(O)c1.Cl` [Compound 13, 3,3′-[2,2′-(Isoamylazanediyl)bis(ethane-2,1-diyl)]diphenol Hydrochloride], the ED50 in assay [1] stood at 2.63 mg/kg. In assay [2], the Ki is 2.1 ± 0.26 nM, the “selectivity DOP/KOP” value is 699 and the “selectivity MOP/KOP” value was 100. The Ki in assay [3] worked out at 1470 ± 147 nM. Further, in assay [4], the Ki is 211 ± 17 nM. In assay [5], this compound came in with an EC50 of 16.6 ± 0.7 nM. Also, in assay [5] (setting [6]), the Emax was 65.6 ± 3.4%.
Regarding `C=CCN(CCc1ccc(O)cc1)CCc1cccc(O)c1` [Compound 16], the Ki in assay [2] was 43.5 ± 1.5 nM; in assay [3], 1100 ± 485 nM; in assay [4] it was 192 ± 17 nM. In addition, the “selectivity DOP/KOP” value in assay [2] was determined as 25. In addition, in assay [2], the “selectivity MOP/KOP” value is recorded as 4. In assay [5], the EC50 was determined as 248 ± 89 nM. The Emax in assay [5] (setting [6]) was 28.5%.
Turning to `c1ccc(CCN(CCc2ccccc2)CC2CCC2)cc1` [Compound 22, N-(Cyclobutylmethyl)-N-phenethyl-2-phenylethanamine], in assay [2], the Ki was found to be 79.1 ± 12.5 nM, the “selectivity DOP/KOP” value amounted to 28 and the “selectivity MOP/KOP” value was 13. In addition, in assay [3], the Ki was 2180 ± 881 nM. Besides, the Ki in assay [4] stood at 1060 ± 263 nM. Besides, the EC50 in assay [5] was found to be 359 ± 116 nM. In assay [5] (setting [6]), the Emax is at least 80%.
